Measured values: ChEMBL document CHEMBL3734711, “Discovery of novel sphingosine kinase 1 inhibitors via structure-based hierarchical virtual screening” (Medchemcomm, 2015)
The source made the active and inactive calls. No cut-off for these calls is given here.

Key:
Sphingosine kinase 2 = target: T1, Sphingosine kinase 2 (Homo sapiens, UniProt Q9NRA0); assay: Inhibition of human recombinant SphK2 preincubated for 5 mins followed by substrate addition measured for 60 mins by plate reader assay
T1 sequence (Q9NRA0 whole entry): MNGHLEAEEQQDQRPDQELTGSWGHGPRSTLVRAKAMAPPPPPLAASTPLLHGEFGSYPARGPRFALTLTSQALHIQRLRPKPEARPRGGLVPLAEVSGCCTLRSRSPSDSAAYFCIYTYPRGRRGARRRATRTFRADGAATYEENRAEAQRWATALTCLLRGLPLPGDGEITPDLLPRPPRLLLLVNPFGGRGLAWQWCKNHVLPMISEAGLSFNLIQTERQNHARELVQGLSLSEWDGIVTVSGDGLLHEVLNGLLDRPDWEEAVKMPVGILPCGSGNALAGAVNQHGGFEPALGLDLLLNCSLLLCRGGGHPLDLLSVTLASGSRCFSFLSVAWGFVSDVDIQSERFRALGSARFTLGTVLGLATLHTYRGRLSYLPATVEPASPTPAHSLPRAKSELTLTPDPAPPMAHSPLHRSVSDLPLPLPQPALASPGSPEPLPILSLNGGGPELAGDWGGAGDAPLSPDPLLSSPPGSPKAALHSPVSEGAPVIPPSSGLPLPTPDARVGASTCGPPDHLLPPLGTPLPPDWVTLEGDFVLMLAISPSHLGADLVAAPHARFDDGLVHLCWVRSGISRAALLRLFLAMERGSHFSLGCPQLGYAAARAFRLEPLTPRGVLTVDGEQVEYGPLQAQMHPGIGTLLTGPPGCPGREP

U-937 = assay: Antiproliferative activity against human U937 cells after 72 hrs by MTT assay; type: functional, cell-based
[1] = target: T2, Sphingosine kinase 2 (Homo sapiens) (UniProt Q9NRA0); assay: Inhibition of human recombinant SphK2 at 50 uM preincubated for 5 mins followed by substrate addition measured for 60 mins by plate reader assay
T2 sequence (whole entry): T1 sequence (Q9NRA0 whole entry)

[2] = target: T2, Sphingosine kinase 2 (Homo sapiens); assay: Inhibition of human recombinant SphK2 at 500 uM preincubated for 5 mins followed by substrate addition measured for 60 mins by plate reader assay
Sphingosine kinase 1 [3] = target: T3, Sphingosine kinase 1 (Homo sapiens, UniProt Q9NYA1); assay: Inhibition of human recombinant SphK1 at 50 uM preincubated for 5 mins followed by substrate addition measured for 60 mins by plate reader assay
Sphingosine kinase 1 [4] = target: T3, Sphingosine kinase 1; assay: Inhibition of human recombinant SphK1 preincubated for 5 mins followed by substrate addition measured for 60 mins by plate reader assay

T3 sequence (Q9NYA1 whole entry): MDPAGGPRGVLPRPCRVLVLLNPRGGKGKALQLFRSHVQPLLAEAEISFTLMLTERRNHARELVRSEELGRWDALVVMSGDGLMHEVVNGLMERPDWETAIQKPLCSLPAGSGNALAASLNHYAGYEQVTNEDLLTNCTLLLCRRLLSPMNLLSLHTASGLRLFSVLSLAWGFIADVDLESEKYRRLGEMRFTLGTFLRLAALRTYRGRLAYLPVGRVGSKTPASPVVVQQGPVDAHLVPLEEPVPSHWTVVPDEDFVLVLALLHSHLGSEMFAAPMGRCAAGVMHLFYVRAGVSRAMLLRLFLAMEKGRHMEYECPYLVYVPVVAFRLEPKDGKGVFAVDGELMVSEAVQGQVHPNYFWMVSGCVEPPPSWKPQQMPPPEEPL

| Compound | IC50 (Sphingosine kinase 2) [µM] | Activity (U-937) | inhibition [1] | inhibition [2] | inhibition (Sphingosine kinase 1 [3]) [%] | IC50 (Sphingosine kinase 1 [4]) [µM] |
| --- | --- | --- | --- | --- | --- | --- |
| CCCCCCCCCCCCC/C=C/[C@@H](O)[C@H](CO)N(C)C [DIMETHYLSPINGOSINE] | 16.3 |  |  |  |  |  |
| O=C(N/N=C/c1cccc(OCc2ccccc2)c1)c1cc(O)c(O)c(O)c1 | 17.1 | Dose-dependent effect | Active | Active | > 60 | 23.1 |
| CCCCCCCCCCCCCC(=O)Nc1nc2ccccc2[nH]1 | 31.3 |  | Active | Active | > 60 | 40.5 |
| CCCOc1ccc(N2C(=O)CC(Nc3ccc(CCO)cc3)C2=O)cc1 (configuration not stated) | 62.6 |  | Active | Active | > 60 | 61.6 |
